Experimental data as given in patent US20230219963A1, “PYRROLO[2,3-D]PYRIMIDINE DERIVATIVES” (Pfizer Inc., priority 2020, published 2023).

Tests used:
[1] = system: IL-4 induced pSTAT6; experiment: IL-4-induced pSTAT6 in human keratinocytes; type: cell-based; conditions: Keratinocyte, JAK1/JAK2, read-out: IL-4 induced pSTAT6, cellular potency IC50
Description: (§1) Human whole blood was collected from healthy donors via vein puncture into Vacutainer collection tubes containing sodium heparin in accordance with Pfizer protocols (Protocol No. GOHW RDP-01) approved by the Shulman Institutional Review Board. Blood was warmed to 37° C. priorto use. Human whole blood was aliquoted (90 μL/well) in 96-well, deep-well, V-bottom plates and treated with compounds (5 μL/well) at different concentrations up to 60 μM (0.2% DMSO final) at 37° C. for 60 minutes. This was followed by a challenge with IFNα (5000 U/mL), IFNγ (100 ng/mL), IL-6 (50 ng/mL), IL-10 (30 ng/mL), IL-12 (30 ng/mL), IL-15 (30 ng/mL), IL-21 (50 ng/mL), IL-23 (25 ng/mL), IL-27 (1000 ng/mL), EPO (2 U/mL), TSLP (50 ng/mL) or PBS and incubated for 15 minutes. Anti-cell surface antibodies were added 15 minutes prior to cytokine stimulation; anti-CD3-BV421 (0.5 μL/well) to IL-6-treated and TSLP-treated samples and anti-CD14-BV421 (0.5 μL/well) to IFNγ-treated samples. Samples were treated with warm 1×Lyse/Fix buffer (700 μL/well) to terminate activation and further incubated at 37° C. for 20 minutes to lyse red blood cells. Plates were centrifuged at 300×g for 5 minutes, supernatant was aspirated, and cells were washed with 800 μL/well of staining buffer (D-PBS containing 0.1% FBS and 0.01% sodium azide). Washed cell pellets were resuspended in 350 μL/well of prechilled 90% methanol and incubated at 4° C. for 30 minutes. After the removal of 90% methanol, cells were washed once with staining buffer. […]
(§2) After overnight incubation at 4° C., anti-pSTAT stained samples were transferred into 96-well polypropylene U-bottom plates and flow cytometric analysis was performed on a LSR Fortessa™ equipped with a HTS plate loader. […] Background fluorescence was defined using unstimulated cells and a gate was placed at the foot of the peak to include ˜0.5% gated population. […]

[2] = system: IL-13 induced pSTAT6; experiment: IL-13-induced pSTAT6 in human keratinocytes; type: cell-based; conditions: Keratinocyte, JAK1/JAK2, read-out: IL-13 induced pSTAT6, cellular potency IC50
Description: as §1, §2

IC50 [1] | IC50 [2] | Structure (SMILES)
134 nM | 84.1 nM | C[C@H](O)CS(=O)(=O)N[C@H]1C[C@@H](N(C)c2ncnc3[nH]ccc23)C1 (single isomer, unassigned) [IA (M2)]
433 nM | 236 nM | CN(c1ncnc2[nH]ccc12)[C@H]1C[C@@H](NS(=O)(=O)CCCO)C1 [IB (M1), 3-Hydroxy-N-(cis-3-(methyl(7H-pyrrolo[2,3-d]pyrimidin-4-yl)amino)cyclobutyl)propane-1-sulfonamide]
